In one assay the target is T1, At-A/N-InvA (Arabidopsis thaliana, UniProt Q9FXA8).
T1 sequence (Q9FXA8 79-616): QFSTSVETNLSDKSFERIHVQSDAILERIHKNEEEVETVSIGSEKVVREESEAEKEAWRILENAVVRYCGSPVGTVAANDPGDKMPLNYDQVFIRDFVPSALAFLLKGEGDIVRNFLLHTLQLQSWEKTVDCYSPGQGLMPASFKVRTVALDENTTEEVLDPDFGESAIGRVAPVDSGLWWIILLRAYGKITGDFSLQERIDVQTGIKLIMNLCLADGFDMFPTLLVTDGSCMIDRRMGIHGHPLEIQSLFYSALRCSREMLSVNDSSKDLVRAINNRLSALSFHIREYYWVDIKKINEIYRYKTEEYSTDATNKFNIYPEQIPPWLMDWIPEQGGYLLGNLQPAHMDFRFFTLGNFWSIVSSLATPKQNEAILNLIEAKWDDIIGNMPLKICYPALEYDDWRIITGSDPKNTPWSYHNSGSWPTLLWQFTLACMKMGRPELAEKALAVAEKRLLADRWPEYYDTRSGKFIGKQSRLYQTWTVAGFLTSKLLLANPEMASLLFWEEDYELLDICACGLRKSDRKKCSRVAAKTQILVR
Briefly: inhibition of sucrose hydrolysis, fructose by HPAEC-PAD. In kind it is biochemical. As to conditions: 100 mM sucrose, 50 mM potassium phosphate, pH 8.2, 30 °C.

The next assay has as its target T2, At-A/N-InvG (Arabidopsis thaliana, UniProt Q9LQF2).
T2 sequence (Q9LQF2 1-551): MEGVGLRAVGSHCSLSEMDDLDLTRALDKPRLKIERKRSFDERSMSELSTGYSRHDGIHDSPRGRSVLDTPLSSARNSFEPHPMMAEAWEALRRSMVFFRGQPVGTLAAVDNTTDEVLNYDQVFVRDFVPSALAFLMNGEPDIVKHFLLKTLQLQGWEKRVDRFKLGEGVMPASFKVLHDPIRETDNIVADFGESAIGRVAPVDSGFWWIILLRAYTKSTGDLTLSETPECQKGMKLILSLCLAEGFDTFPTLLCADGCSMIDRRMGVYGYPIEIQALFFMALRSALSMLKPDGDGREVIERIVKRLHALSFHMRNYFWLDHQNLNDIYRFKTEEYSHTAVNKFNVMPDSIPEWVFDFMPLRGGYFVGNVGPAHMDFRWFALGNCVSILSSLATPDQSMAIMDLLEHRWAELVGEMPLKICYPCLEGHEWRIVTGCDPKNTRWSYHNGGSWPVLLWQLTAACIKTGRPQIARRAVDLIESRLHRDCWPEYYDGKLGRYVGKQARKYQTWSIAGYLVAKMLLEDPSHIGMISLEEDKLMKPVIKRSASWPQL
The description is as above. In kind it is biochemical.

For `NC(CO)(CO)CO` [TRIS], the “activity vs TRIS concentration” value on At-A/N-InvA is on record as “A typical inhibitory effect of TRIS on At-A/N-InvA activity was found”. The IC50 (as a rule, the concentration needed to halve the response being measured) against At-A/N-InvG lay within 25 to 30 mM.

For the origin of these results see paper PMC3134342 (Journal of Experimental Botany, 2011).
